Experimental data: US8846643B2, “Phosphonates with reduced toxicity for treatment of viral infections” (The Regents of the University of California, priority 2010, dated 2014)
Like-named read-outs stand apart in the source and are kept apart here.

What was measured:
[1] = test system: HCV genotype 1b replicon (BM4-5); test: anti-HCV activity in genotype 1b replicon (BM4-5); assay type: cell-based, hepatitis C virus; details: for EC50: Hepatitis C virus; for Selectivity Index BM4-5 (1b): genotype 1b replicon; for anti-HCV activity (in words): HCV replication in vitro
[2] = test system: HCV genotype 2a replicon (JFH-1); test: anti-HCV activity in genotype 2a replicon (JFH-1); assay type: cell-based, hepatitis C virus; details: for EC50: Hepatitis C virus, read-out: EC50 (μM) JFH-1 (2a); for Selectivity Index JFH-1 (2a): genotype 2a replicon
HIV-1 [3] = details: for anti-HIV activity (in words): HIV-1 infected MT-2 cells; for Selectivity Index: MT-2 cells, HIV-1
MT-2 cells = test: cytotoxicity in MT-2 cells; details: MT-2 cells
HIV-1 [4] = test: microbe, parasite or virus in culture
Huh 7.5 cells = test: cytotoxicity (CC50) in HCV replicon cells / Huh 7.5 liver cells; details: cytotoxicity in replicon cells
[5] = target: HIV-1 reverse transcriptase (Human immunodeficiency virus type 1 group M subtype B, UniProt P04585); test: HIV reverse transcriptase assay with primer-template pairs; assay type: biochemical; details: HIV-1 reverse transcriptase 50 nM, 37° C., 5 min
Experimental: (S)-MPMPA diphosphate was prepared as described in Example 56. Radiolabeled [γ-^32P]ATP and cordycepin triphosphate ([α-^32P]3′-deoxyATP) was purchased from PerkinElmer, and unlabeled deoxynucleoside triphosphates (dNTPs) were from Fermentas. RNA oligonucleotides were purchased from Sigma.
Oligonucleotide primer-template pairs were used as substrates for reverse transcriptase assays. Reverse transcriptase assays utilized RNA oligonucleotide templates. The primers were first end-labeled by using [γ-^32P]ATP and T4 polynucleotide kinase prior to annealing to the template strand. Various combinations of dNTPs and (S)-MPMPApp were added. […] After incubation of controls and (S)-MPMPA at 37° C. for 5 min, reaction mixtures were stopped by the addition of gel loading buffer [80% (v/v) formamide, 10 mM EDTA (pH 8.0), 1 mg/ml xylene cyanol FF, 1 mg/ml bromophenol blue]. Reaction products were resolved on 10% polyacrylamide gels and analyzed by phosphorimager analysis as previously described (Magee et al., 2005) using a Typhoon 9400 phosphorimager.).

Vaccinia = test: microbe, parasite or virus in culture; assay type: cell-based; details: Orthopoxvirus vaccinia
Cowpox = test: organism not typed; assay type: cell-based; details: read-out: EC50 (μM) Cowpox
HCMV = test: antiviral activity against HCMV, plaque reduction assay in HFF cells; assay type: cell-based, human cytomegalovirus; details: Human betaherpesvirus 5, HFF, read-out: EC50 (μM) HCMV
HSV-1 = test: antiviral activity against HSV-1, plaque reduction assay in HFF cells; assay type: cell-based, herpes simplex virus, type 1; details: Human alphaherpesvirus 1, HFF, read-out: EC50 (μM) HSV-1
HIV-1NL43 = test: HIV-1 replication in human peripheral blood mononuclear cells; assay type: cell-based; details: for EC50: Human immunodeficiency virus 1, PBMC, HIV-1NL43 in human PBMCs; for activity against HIV-1 in human PBMCs (in words): HIV-1 infected human PBMCs
in vitro = details: human, HFF fibroblasts
[6] = cytotoxicity in human PBMCs
[7] = cytotoxicity (CC50) in HCV replicon cells / Huh 7.5 liver cells; details: human, Huh 7.5 liver cells
[8] = antiviral activity and cytotoxicity of unmodified MPMPA (system not stated)
[9] = BM4-5, read-out: EC50 (μM) BM4-5(1b)
[10] = Human immunodeficiency virus 1, MT2, MT-2 cells infected with HIV-1
[11] = Human immunodeficiency virus 1, MT2
[12] = BM4-5, read-out: EC50 values, range

Row | SMILES | EC50 [1, 9] | EC50 [2] | anti-HIV activity (in words) (HIV-1 [3]) | CC50 (MT-2 cells) | EC50 (HIV-1 [4]; [10]) | CC50 (Huh 7.5 cells) | EC50 (HIV-1 [4]; [11]) | further results
1 | CCCCCCCCCCCCCCCCOCCCOP(=O)(O)COC(COCC)Cn1cnc2c(N)ncnc21 (racemic) [Cmpd 18, hexadecyloxypropyl 9-(R,S)-[3-ethoxy-2-(phosphonomethoxy)propyl]adenine] | 7.59 µM | 8.87 µM | loss of antiviral activity | 23.6 ± 7.1 µM | > 10 µM | 99 ± 0.5 µM | – | –
2 | CCCCCCCCCCCCCCCCOCCCOP(=O)(O)COC(COC(C)C)Cn1cnc2c(N)ncnc21 (racemic) [Cmpd 19, hexadecyloxypropyl 9-(R,S)-[3-isopropoxy-2-(phosphonomethoxy)propyl]adenine] | 51.2 ± 38.2 µM | 98.8 ± 20.8 µM | loss of antiviral activity | 30.3 ± 12.5 µM | > 10 µM | 100 ± 20.8 µM | – | –
3 | CCCCCCCCCCCCCCCCOCCCOP(=O)(O)COC(COCC)Cn1cnc2c(N)nc(N)nc21 (racemic) [Cmpd 26, Hexadecyloxypropyl (R,S)-9-[3-ethoxy-2-phosphonomethoxy)propyl-2,6-diaminopurine] | 18.2 ± 7.09 µM | 19.5 ± 1.48 µM | large loss of anti-HIV activity | 30.7 ± 11.7 µM | > 10 µM | > 150 µM | – | Selectivity Index BM4-5 (1b) [1]: >8.2; Selectivity Index JFH-1 (2a) [2]: >7.69
4 | CCCCCCCCCCCCCCCCOCCCOP(=O)(O)COC(COCC)Cn1cnc2c(=O)[nH]c(N)nc21 (racemic) [Cmpd 37, Hexadecyloxypropyl (R,S)-9-[3-ethoxy-2-phosphonomethoxy)propyl]guanine] | 25.5 ± 10.4 µM | 13.2 ± 3.45 µM | large loss of anti-HIV activity | 14.9 ± 6.7 µM | > 10 µM | > 150 µM | – | Selectivity Index BM4-5 (1b) [1]: >5.88; Selectivity Index JFH-1 (2a) [2]: >11.4
5 | COC[C@H](Cn1cnc2c(N)ncnc21)OCP(=O)(O)OP(=O)(O)OP(=O)(O)O [(S)-MPMPA diphosphate] | – | – | – | – | – | – | – | inhibition of HIV reverse transcriptase activity (in words) [5]: inhibited HIV reverse transcriptase activity by chain termination
6 | CCCCCCCCCCCCCCCCCCOCCOP(=O)(O)CO[C@H](COC)Cn1cnc2c(N)ncnc21 [Cmpd 15, Octadecyloxyethyl (S)-9-[(3-methoxy-2-phosphonomethoxy)propyl]adenine] | 1.43 ± 0.38 µM | 2.38 ± 1.09 µM | potent inhibitory activity | – | – | > 150 µM | 0.03 µM | anti-HCV activity (in words) [1]: potent inhibitory activity; EC50 (Vaccinia; read-out: EC50 (μM) Vaccinia): 18.3 ± 2.4 µM; EC50 (Vaccinia; read-out: EC50 for vaccinia inhibition): 18.3 µM; EC50 (Cowpox): > 20 µM; EC50 (HCMV): 1.55 ± 0.4 µM; EC50 (HSV-1): 45.7 ± 10.1 µM; EC50 (HIV-1NL43): ~0.005 µM; CC50 (in vitro): 23.8 ± 2.6 µM; CC50 [6]: > 10 µM; CC50 [7]: > 150 µM
7 | CCCCCCCCCCCCCCCCCCOCCOP(=O)(O)CO[C@@H](COC)Cn1cnc2c(N)ncnc21 [Cmpd 16, Octadecyloxyethyl (R)-9-[(3-methoxy-2-phosphonomethoxy)propyl]adenine] | 4.65 µM | 5.33 µM | considerably less active and selective | – | 4.8 ± 3 µM | > 150 µM | – | –
8 | CCCCCCCCCCCCCCCCOCCCOP(=O)(O)CO[C@H](COC)Cn1cnc2c(N)ncnc21 [Cmpd 17] | 2.36 µM | 4.64 µM | less active | 32 ± 11 µM | – | > 150 µM | 0.2 ± 0.26 µM | activity against HIV-1 in human PBMCs (in words) (HIV-1NL43): active and selective; EC50 (HIV-1NL43): 0.2 µM; CC50 [6]: > 10 µM
9 | CCCCCCCCCCCCCCCCCCOCCOP(=O)(O)CO[C@H](COC)Cn1cnc2c(N)nc(N)nc21 [Cmpd 23, Octadecyloxyethyl (S)-9-[(3-methoxy-2-phosphonomethoxy)propyl]2,6-diaminopurine] | 20.1 ± 1.98 µM | 21.4 ± 1.3 µM | – | 18 ± 5.3 µM | 0.23 ± 0.15 µM | 99 ± 13.4 µM | – | –
10 | CCCCCCCCCCCCCCCCCCOCCOP(=O)(O)CO[C@@H](COC)Cn1cnc2c(N)nc(N)nc21 [Cmpd 24, Octadecyloxyethyl (R)-9-[(3-methoxy-2-phosphonomethoxy)propyl]2,6-diaminopurine] | 25.6 ± 4.23 µM | 25.8 ± 6.1 µM | – | 19.7 ± 9.5 µM | – | > 150 µM | – | –
11 | CCCCCCCCCCCCCCCCOCCCOP(=O)(O)CO[C@H](COC)Cn1cnc2c(N)nc(N)nc21 [Cmpd 25] | 21.3 ± 3.1 µM | 23.6 ± 2.7 µM | less active | 22.7 ± 6.8 µM | 4.6 ± 1.8 µM | 91.5 ± 17.8 µM | – | –
12 | CCCCCCCCCCCCCCCCCCOCCOP(=O)(O)CO[C@H](COC)Cn1cnc2c(=O)[nH]c(N)nc21 [Cmpd 34, Octadecyloxyethyl (S)-9-[(3-methoxy-2-phosphonomethoxy)propyl]guanine] | 8.26 µM | 10.7 µM | – | 25 ± 13 µM | – | – | 0.2 µM | Selectivity Index BM4-5 (1b) [1]: >18.2; Selectivity Index JFH-1 (2a) [2]: >14.0; Selectivity Index (HIV-1 [3]): 125
13 | CCCCCCCCCCCCCCCCCCOCCOP(=O)(O)CO[C@@H](COC)Cn1cnc2c(=O)[nH]c(N)nc21 [Cmpd 35, Octadecyloxyethyl (R)-9-[(3-methoxy-2-phosphonomethoxy)propyl]guanine] | 12.6 µM | 12.4 µM | – | 44 µM | – | > 150 µM | < 1e-05 µM | Selectivity Index BM4-5 (1b) [1]: >11.9; Selectivity Index JFH-1 (2a) [2]: >12.1
14 | CCCCCCCCCCCCCCCCOCCCOP(=O)(O)CO[C@H](COC)Cn1cnc2c(=O)[nH]c(N)nc21 [Cmpd 36] | 22 ± 4.97 µM | 24.8 ± 7 µM | less active | 29.3 ± 3.1 µM | – | > 150 µM | 2.03 ± 0.95 µM | activity against HIV-1 in human PBMCs (in words) (HIV-1NL43; listed as HDP-(S)-MPMPG): active and selective; activity against HIV-1 in human PBMCs (in words) (HIV-1NL43; listed as hexadecyloxypropyl-(S)-MPMPG): submicromolar activity; CC50 [6]: > 100 µM
15 | CCCCCCCCCCCCCCCCCCOCCOP(=O)(O)CO[C@H](COC)Cn1ccc(N)nc1=O [Cmpd 40, Octadecyloxyethyl (S)-1-[(3-methoxy-2-phosphonomethoxy)propyl]cytosine] | > 150 µM | > 150 µM | – | 60.7 ± 16 µM | – | > 150 µM | 12.7 µM | anti-HCV activity (in words) [1]: inactive; activity against HIV-1 in human PBMCs (in words) (HIV-1NL43): antiviral activity; Selectivity Index (HIV-1 [3]): 4.8
16 | CCCCCCCCCCCCCCCCOCCCOP(=O)(O)CO[C@H](COC)Cn1cnc2c(OC)ncnc21 [Cmpd 43, Hexadecyloxypropyl (S)-9-[(3-methoxy-2-phosphonomethoxy)propyl]-6-methoxypurine] | 8.9 ± 1.22 µM | 12.5 ± 3.36 µM | – | 22 ± 3.5 µM | – | > 150 µM | > 10 µM | EC50 [1, 12]: 8.9 to 12.5 µM
17 | CCCCCCCCCCCCCCCCOCCCOP(=O)(O)CO[C@H](COC)Cn1cnc2c(OC)nc(N)nc21 [Cmpd 44, Hexadecyloxypropyl (S)-9-[(3-methoxy-2-phosphonomethoxy)propyl]-6-O-methylguanine] | 18.1 ± 0.27 µM | 17.4 ± 0.3 µM | – | 34.3 ± 7.6 µM | – | > 150 µM | > 10 µM | EC50 [1, 12]: 18 to 26 µM
18 | COC[C@H](Cn1cnc2c(N)ncnc21)OCP(=O)(O)O [MPMPA, 9-(S)-[3-methoxy-2-(phosphonomethoxy)propyl]adenine] | – | – | – | – | – | – | – | CC50 ([8]; cells not given): 40 µM; EC50 ([8]; virus and cells not stated): 20 µM
